Experimental data reported in PubChem BioAssay (NCI).
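Compound exposure: 48 hours, 5 concentrations, 96-well plates. TGI: concentration producing complete growth inhibition.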

How the values were obtained:
Test in all cases: DTP human tumour cell line panel, 48 h
[1] = test system: A549 NSCLC
[2] = test system: HL-60(TB) leukemia
[3] = test system: K-562 leukemia
[4] = test system: KM12 colon
[5] = test system: NCI-H23 lung
[6] = test system: RPMI-8226 leukemia
[7] = test system: SF-268 CNS
[8] = test system: SNB-19 CNS
[9] = test system: SR leukemia
[10] = test system: UACC-62 melanoma
[11] = test system: 786-0 renal
[12] = test system: OVCAR-4 ovarian
[13] = test system: SF-295 CNS
[14] = test system: UACC-257 melanoma
[15] = test system: DU-145 prostate
[16] = test system: T-47D breast

| SMILES | TGI [1] [µM] | TGI [2] [µM] | TGI [3] [µM] | TGI [4] [µM] | TGI [5] [µM] | TGI [6] [µM] | TGI [7] [µM] | TGI [8] [µM] | TGI [9] [µM] | TGI [10] [µM] | TGI [11] [µM] | TGI [12] [µM] | TGI [13] [µM] | TGI [14] [µM] | TGI [15] [µM] | TGI [16] [µM] |
| --- | --- | --- | --- | --- | --- | --- | --- | --- | --- | --- | --- | --- | --- | --- | --- | --- |
| C[Si](C)(C)/C=C/CN1C(=O)CCC1=O | > 100 | > 100 | > 100 | > 100 | > 100 | > 100 | > 100 | > 100 | > 100 | > 100 |  |  |  |  |  |  |
| COc1cc2c(cc1OC)[C@H]1C(COC(=O)Nc3ccccc3)CN1CC2 (some centres undefined) | > 100 | > 100 | > 100 | > 100 | > 100 | > 100 | > 100 | > 100 | > 100 | > 100 | > 100 | > 100 | > 100 |  |  |  |
| CCOC(OC1=C(C#N)CCCC1)C(CC)[Se]c1ccccc1[N+](=O)[O-] (centres undefined) | > 100 | 46.1 | > 100 | 43.1 | 31.3 | 43.4 | 43.6 | 72.5 | 38.9 | 47 | 34.2 | 35.1 | 47 | > 100 |  |  |
| COC(=O)C(C#N)C1NC(=O)c2ccccc21 (centres undefined) | > 100 | > 100 | > 100 | > 100 | > 100 | > 100 | > 100 | > 100 | > 100 | > 100 | > 100 | > 100 | > 100 | > 100 |  |  |
| O=C(O)CCC(NC(=O)c1ccc(Oc2nc3ccccc3nc2-c2ccccc2)cc1)C(=O)O (centres undefined) | > 100 | > 100 | > 100 | > 100 | > 100 |  | > 100 | > 100 | > 100 | > 100 | > 100 | > 100 | > 100 | > 100 | > 100 | > 100 |
| O=C(O)CCC(NC(=O)c1ccc(CNc2nc3cc(C(F)(F)F)ccc3nc2C(=O)O)cc1)C(=O)O (centres undefined) | > 100 | > 100 | > 100 | > 100 | > 100 |  | > 100 | > 100 | > 100 | > 100 | > 100 | > 100 | > 100 | > 100 | > 100 | > 100 |
| C/C(=C\CC/C=C(\C)CC/C=C(\C)CCC1SC1(C)C)CC/C=C(\C)CCC1OC1(C)C (centres undefined) | > 100 | > 100 | > 100 | > 100 | > 100 | > 100 | > 100 | > 100 | > 100 |  | > 100 | > 100 | > 100 |  |  |  |
| Cn1c(=O)[nH]c2c(c1=O)C(=O)CN2 | > 100 | > 100 | > 100 | > 100 |  | > 100 | > 100 | > 100 | > 100 |  |  | > 100 | > 100 | > 100 |  |  |
